Each block holds one molecule with its values, some of them ahead of it.
Columns and labels:
[1] = target: T1, Recombinant human MMP2 (Homo sapiens, UniProt P08253); experiment: MMP2 activity assay on MSLPs (HPLC); type: biochemical; settings: 48 h, 37 °C, 0.1 μg/mL rhMMP2, 100 μM MSLP, 50 mM Tris, 10 mM CaCl2, 150 mM NaCl, 0.05% Brij 35, pH 7.5
T1 construct: purchased R&D Systems
T1 sequence (P08253 110-660): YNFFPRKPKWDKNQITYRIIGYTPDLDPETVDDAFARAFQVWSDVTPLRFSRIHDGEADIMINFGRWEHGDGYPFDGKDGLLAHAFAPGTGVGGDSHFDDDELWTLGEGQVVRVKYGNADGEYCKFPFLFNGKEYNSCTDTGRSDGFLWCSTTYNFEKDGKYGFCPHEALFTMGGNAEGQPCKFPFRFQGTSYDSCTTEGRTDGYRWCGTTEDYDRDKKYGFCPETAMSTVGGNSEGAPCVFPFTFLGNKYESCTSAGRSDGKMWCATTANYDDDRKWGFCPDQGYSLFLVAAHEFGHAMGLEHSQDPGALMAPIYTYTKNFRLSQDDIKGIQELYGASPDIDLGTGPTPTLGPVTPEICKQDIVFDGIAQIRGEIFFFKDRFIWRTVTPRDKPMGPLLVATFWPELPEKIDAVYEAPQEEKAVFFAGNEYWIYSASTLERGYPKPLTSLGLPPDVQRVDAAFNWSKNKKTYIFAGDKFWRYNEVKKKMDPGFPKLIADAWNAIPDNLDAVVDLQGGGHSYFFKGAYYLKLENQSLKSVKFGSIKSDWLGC
Protocol: (§1) Recombinant human MMP2 (rhMMP2, R&D system, Minneapolis, MN, USA) was diluted to 0.2 μg/mL in 200 µL assay buffer (50 mm Tris, 10 mM CaCl2, 150 mm NaCl, 0.05% (w/v) Brij 35, pH 7.5). The enzymatic reaction was started by adding 200 μL of 200 μM MSLPs in the assay buffer, and was stirred at 37 °C for 48 h. Final concentrations were 0.1 μg/mL for MMP2 and 100 μM for MSLPs. The reaction was monitored by HPLC between 1 and 48 h on a small aliquot, by deactivating the enzyme with a 10% aqueous TFA solution. MSLPs’ solutions in assay buffer (see below) were used as a blank. A pronase/unspecific protease activity assay on MSLPs was carried out by diluting a mixture of proteolytic enzymes at 2 ng/mL, 0.2 µg/mL and 20 µg/mL in 200 µL assay buffer (50 mm Tris, 10 mm CaCl2, 150 mm NaCl, 0.05% (w/v) Brij 35, pH 7.5). The enzymatic reaction was started by adding 200 μL of 200 μM MSLPs in the assay buffer, and was stirred at 37 °C for 48 h. Final concentrations of 1 ng/mL, 0.1 μg/mL and 10 μg/mL (Pronase) and 100 μM (MSLPs) were used. The reaction was monitored by HPLC between 1 and 48 h on a small aliquot, by deactivating the enzymes with a 10% aqueous TFA solution. MSLPs’ solutions in assay buffer were used as a blank.

[2] = system: pronase; experiment: Pronase/unspecific protease activity assay on MSLPs (HPLC); type: biochemical; settings: 100 μM MSLP, 37 °C, up to 48 h, assay buffer pH 7.5
Protocol: as §1

[3] = system: primary neurons; experiment: CCK8 cell viability assay on primary neurons; type: cell-based; settings: primary mouse cortical neurons, 16 days in vitro; 24 h; 0.085, 0.85, 8.5 and 85 µM glibenclamide; compared with DMSO controls
Protocol: C57BL6J mice were maintained under pathogen-free conditions at San Raffaele Hospital mouse facility (Milan, Italy). Procedures were performed according to the guidelines of the Institutional Animal Care and Use Committee of the San Raffaele Scientific Institute and the Ministry of Health (protocol number 372/2021-PR). Primary neuronal cell cultures were established from C57Bl/6J E17.5 embryonic cerebral cortices (Charles River), according to our published protocol. Briefly, we dissected forebrains in cold HBSS supplemented with 0.6% glucose and 5 mM HEPES pH 7.4 to obtain cerebral cortices. Cortices were mechanically dissociated in single cell preparations and re-suspended in culture medium containing Neurobasal, 5 mM HEPES pH 7.4, 0.6% glucose and the 1× B27 supplement. Cells were plated at 30,000 cells/well on 96 multi wells previously coated with poly lysine (0.2 mg/mL), and primed with Dulbecco’s modified Eagle’s media (DMEM) 20% FBS. Cells were maintained in a humidified 5% CO2/95% air environment at 37 °C. […] Cell viability was measured using the Cell Counting Kit-8 (CCK8) Metabolic Assay Kit, following the manufacturer’s protocol (Sigma-Aldrich, Burlington, VT, USA). […] We measured samples absorbance every 30 min at 450 nm, using a Multiskan Sky (Thermo fisher scientific, Waltham, MA, USA). Absorbance readings were subsequently normalized to the mean value of the controls.

[4] = system: primary neurons; experiment: LDH-Glo cytotoxicity assay on primary neurons; type: cell-based; settings: primary mouse cortical neurons; 24 h; 0.085, 0.85, 8.5 and 85 µM glibenclamide; supernatants
Protocol: Primary neuronal cell cultures were established from C57Bl/6J E17.5 embryonic cerebral cortices (Charles River), according to our published protocol [37]. Briefly, we dissected forebrains in cold HBSS supplemented with 0.6% glucose and 5 mM HEPES pH 7.4 to obtain cerebral cortices. Cortices were mechanically dissociated in single cell preparations and re-suspended in culture medium containing Neurobasal, 5 mM HEPES pH 7.4, 0.6% glucose and the 1× B27 supplement. Cells were plated at 30,000 cells/well on 96 multi wells previously coated with poly lysine (0.2 mg/mL), and primed with Dulbecco’s modified Eagle’s media (DMEM) 20% FBS. […] Neurons were left to mature for 16 days, and upon visual inspection were used for cytotoxicity assays.
A bioluminescent lactate dehydrogenase (LDH)-release assay (LDH-Glo Cytotoxicity Assay, Promega) was used to assess cytotoxicity in supernatants of cells treated with liposomes according to manufacturer’s instruction. […] In each experiment, we calculated the % of cytotoxicity as follows:(Exp.LDH Release − MB)/(Max LDH Release Control − MB)(2) where MB is Medium Background.

[5] = system: TNFα release from BV2 microglial cells; experiment: TNFα ELISA in LPS-stimulated BV2 cells; type: cell-based, mouse; settings: free glibenclamide 10 to 80 μM for 60 h, then LPS for 8 h
Protocol: (§2) BV2 microglial cells, RAW264.7 and Neuro2A (N2A) cells were cultured in DMEM supplemented with 10% heat-inactivated FBS, 100 U/mL penicillin and 100 μg/mL streptomycin at 37 °C in a humidified 5% CO2 atmosphere. The day before the experiment, BV2 cells were plated on 24 well plates at 80,000 cells/well; LPS was dissolved in PBS as a stock solution (1 mg/mL), and stored at −20 °C. BV2 cells seeded into multiplates were exposed to LPS (0.5 µg/mL) in presence or absence of glibenclamide (40 µM), empty mApoE-MSLP1-liposomes and mApoE-MSLP1 loaded with glibenclamide. Cells were left in vitro for 40 or 60 h, treated with LPS for additional 8 h before using supernatants for an ELISA assessment of TNFα and IL-6. BV2 cells were seeded in 24-well plates at 80,000 cells/well, then treated with LPS (0.5 µg/mL) to induce TNFα and IL-6 production. Cells were treated for 8 h. Cytokine levels in cells supernatants collected before and after treatment were assayed using the mouse TNF-alpha DuoSet ELISA (R&D Systems, DY410) and the mouse IL-6 DuoSet ELISA kit (R&D Systems, DY406), according to manufacturer’s instructions.

[6] = system: IL-6 release from BV2 microglial cells; experiment: IL-6 ELISA in LPS-stimulated BV2 cells; type: cell-based, mouse; settings: free glibenclamide 10 to 80 μM for 60 h, then LPS for 8 h
Protocol: as §2, with “BV2 cells seeded into multiplates were exposed to LPS (0.5 µg/mL) in presence or absence of glibenclamide (40 µM), empty mApoE-MSLP1-liposomes and mApoE-MSLP1 loaded with glibenclamide.” left out

- HPLC peak of lipopeptide after incubation with MMP2 [1]: still present
Molecule: SKK(stearate)GSALGQIGPSK(stearate)KS [c-MSLP]

- HPLC peak of lipopeptide after incubation with MMP2 [1]: completely disappeared
Molecule: SKK(stearate)SGPLGIAGQSK(stearate)KS [MSLP-1, MMP2-responsive lipopeptide with two stearate tails]

- HPLC peak of lipopeptide after incubation with MMP2 [1]: still present
- cleavage by pronase ([2]; 10 μg/mL pronase): complete cleavage
- change of intensity of HPLC peak with pronase ([2]; lower pronase concentrations (1 ng/mL, 0.1 μg/mL)): no significant change
Molecule: SKK(stearate)SGAKPRA-LTASK(stearate)KS [MSLP-2, MMP2/9-responsive lipopeptide with two stearate tails]

Molecule: COc1ccc(Cl)cc1C(=O)NCCc1ccc(S(=O)(=O)NC(=O)NC2CCCCC2)cc1 [glibenclamide]
- cell viability (CCK8) [3]: did not affect cell viability
- cytotoxicity (LDH release) [4]: did not increase cytotoxicity
- TNFα levels [5]: dose-dependent reduction
- IL-6 levels [6]: dose-dependent reduction

— paper PMC9698607, “Dual Functionalized Liposomes for Selective Delivery of Poorly Soluble Drugs to Inflamed Brain Regions” (Pharmaceutics, 2022)
